Here are results for one substance from patent US7834172B2, “Composition comprising at least one nucleosidic moiety as a therapeutic agent, and CKC” (Novagali Pharma SA, priority 2007, dated 2010).

The data set is described as follows: CKC/oligonucleotide complex formation, observation of precipitation. The data set is classed as physicochemical. Particulars: SEQ ID No. 2 solution 10 μM. The text has this:
CKC/Oligonucleotides complexes are formed due to the interaction of the CKC positive charges with the oligonucleotides negative charges conferred by each of the bases (18 in the case of SEQ ID No.2). The complex formation has the effect of neutralizing part of the negative charges of the oligonucleotides and to bring some lipophilic moieties to the complex. A stable complex with a balanced lipophilicity enhances the oligonucleotide penetration in the cells due to the affinity with the lipophilic cell membranes.
Stable complexes are formed without precipitation at ratios below 10/18 (CKC/oligonucleotide negative charges, the few lipophilic moieties being unable to induce the precipitation.

As for “SEQ ID No. 2: 18 mer-phosphorotioate oligonucleotide, 5′-3′ sequence ACT CAT ATT CAT AGG GTG (DNA ACTCATATTCATAGGGTG; all phosphorothioate, sugars by position and methylation of C not given here; further chemistry not fully specified)”, the “Observation (precipitation)” value runs as follows: (ratio CKC/negative charges 0.05, CKC 10 μM) “No precipitation”; (ratio CKC/negative charges 0.27, CKC 50 μM) “No precipitation”; (ratio CKC/negative charges 0.55, CKC 100 μM) “No precipitation”; (ratio CKC/negative charges 0.83, CKC 150 μM) “↓”; (ratio CKC/negative charges 1.11, CKC 200 μM) “↓”; (ratio CKC/negative charges 1.66, CKC 300 μM) “↓”. The “Observation (precipitation)” value was “↓” (ratio CKC/negative charges 2.22, CKC 400 μM); “↓” (ratio CKC/negative charges 2.77, CKC 500 μM); “↓↓” (ratio CKC/negative charges 4.17, CKC 750 μM); “↓↓↓” (ratio CKC/negative charges 5.55, CKC 1000 μM); “↓↓↓” (ratio CKC/negative charges 55.55, CKC 10000 μM).
